Measurements reported in patent US20100323968A1, “Process of inhibiting cell death in injured cartilage” (The Scripps Research Institute, priority 2001, published 2010).
“Also recorded” adds a separate entry of the source. Where a SMILES comes first, the peptide text is derived from it. The star is where a group is joined. Cbz = O=C(OCc1ccccc1)*; CH2F = FC*

How the values were obtained:
[1] = test system: bovine cartilage explants; test: Apoptosis (TUNEL) in mechanically injured bovine cartilage explants; format: cell-based; conditions: for Mean (±SD) apoptosis rates, Loaded + Agent: bovine femoral condyle cartilage, loaded at 23 MPa, in vitro, n = 8 to 10
From the text: Cartilage explants. Macroscopically normal weight bearing portions of freshly slaughtered skeletally mature bovine femoral condyles were selected from animals between 2 and 6 years of age (Animal Technologies, Austin, Tex.). Only joints without visible signs of degeneration or aging were selected. Using sterile techniques, full thickness cartilage was separated from underlying subchondral bone with a scalpel and 5 mm diameter cylindrical explants, ranging from 1 to 1.8 mm in height, cored out using a dermal punch (Acuderm, Inc., Ft. Lauderdale, Fla.). Explants taken from adjacent sites were used as matched controls for each group in each experiment to minimize variation in cartilage response due to differences in thickness and location within the joint. Each explant was weighed and allowed to stabilize at 37° C. and 5% CO2 for 48 hours in 1 ml of Dulbecco's modified Eagle's medium (DMEM) supplemented with 10% fetal bovine serum (FBS), L-glutamine, antibiotics and 50 μg/ml ascorbic acid.
Full thickness bovine cartilage explants, 5 mm in diameter, were subjected to a single static mechanical load of 7, 14 or 23 MPa for 500 msec. This model simulates traumatic cartilage injury and the loads were similar in magnitude to those generated during traumatic joint injury. Glycosaminoglycan (GAG) release and percent apoptotic cells were measured. The effect of a pan-caspase inhibitor, z-VAD.fmk [benzyloxycarbonyl-Val-Ala-Asp (OMe) fluoromethylketone] in preventing chondrocyte apoptosis was determined. z-VAD.fmk is a fluoromethylketone irreversible inhibitor of a broad spectrum of caspases. […] The percentage of apoptotic chondrocytes was related to load intensity and correlated with the level of GAG release from cartilage. […] This identifies a new approach to limit traumatic cartilage injury and the subsequent development of secondary osteoarthritis.
Loading apparatus and procedure. A model to simulate acute joint injury was used in this study based on injury models reported by Repo and Finlay, and Jeffrey et al. (Repo, et al. (1977) J. Bone Joint Surg. Am. 59A, 1068-1076, Jeffrey, et al. (1995) Arch. Biochem. Biophys. 322, 87-96). Although these reported models impacted cartilage using drop towers, a more controlled method was chosen for applying and maintaining stress or strain as follows. An Instron 8511 servohydraulic testing machine (Instron Corporation, Boston, Mass.) was used to mechanically load the cartilage explants. Explants were transported from the incubator to the Instron machine in sealed cell culture dishes. The explant was centralized on a stainless steel loading platform and a radially unconfined compressive load was applied through an impermeable stainless steel platen. A small preload (0.1 MPa) was applied for 2 minutes, followed by a single 500 msec trapezoidal loading waveform at the selected stress. The stress rose from 0.1 MPa to the chosen stress level in 100 msec and was maintained for 500 msec. Three stress levels were chosen to represent acute joint injury. 7 MPa has been reported to be the upper limit of physiologic stress developed during activities of daily living (von Eisenhart, et al. (1999) J. Orthop. Res. 17, 532-539). 23 MPa is the stress above which the underlying bone has been reported to fracture (Haut (1989) J. Orthop. Res. 7, 272-280). Control explants were placed in the loading apparatus but not loaded. […] Stress and strain data were recorded during the test. […]

human cartilage explants = test: Apoptosis (TUNEL) in mechanically injured human cartilage explants; format: cell-based; conditions: for Mean (±SD) apoptosis rates, Loaded + Agent: human cartilage (femoral condyles and tibial plateaus), in vitro, n = 8 to 10
From the text: Cartilage explants. Macroscopically normal tibial and femoral articular surfaces were selected from human cadaver donors between 18 and 45 years of age. Using sterile techniques, full thickness cartilage was separated from underlying subchondral bone with a scalpel. 5 mm diameter cylindrical explants, ranging from 2 to 2.8 mm in thickness, cored out using a dermal punch (Acuderm, Inc., Ft. Lauderdale, Fla.). Explants taken from adjacent sites were used as matched controls for each group in each experiment to minimize variation in cartilage response due to differences in thickness and location within the joint. Each explant was weighed and allowed to stabilize at 37° C. and 5% CO2 for 48 hours in Dulbecco's modified Eagle's medium (DMEM) supplemented with 5% fetal bovine serum (FBS), L-glutamine, antibiotics and […] ascorbic acid.
Loading apparatus and procedure. An Instron 8511 servohydraulic testing machine (Instron Corporation, Boston, Mass.) was used to mechanically load the cartilage explants. Explants were transported from the incubator to the Instron machine in sealed cell culture dishes. The total time duration of loading for a single experiment varied from approximately 1 to 2 hours depending on the number of samples. During this time, explants were maintained at 37° C. The explant was centralized on a stainless steel loading platform and a radially unconfined compressive load was applied through an impermeable stainless steel platen. […] Stress and strain data were recorded during the test.
Caspase inhibition. […] Percentage apoptosis was measured at 96 hours post-injury in three groups (control, loaded, and loaded with z-VAD.fmk) with ten explants each in two separate experiments.
Apoptosis detection. […] This was detected by immunohistochemical staining with M30 (Cytodeath, Boehringer Mannheim, Eugene, Oreg.), a monoclonal antibody that recognizes the neo-epitope exposed in early apoptosis.
Chondrocyte apoptosis after mechanical injury to human cartilage. […] GAG release and percentage of cells undergoing apoptosis were measured at 96 hours after injury. […]

[2] = test system: bovine cartilage explants; test: Glycosaminoglycan release assay (DMMB) in injured bovine cartilage explants; format: cell-based; conditions: bovine explants after mechanical injury, z-VAD.fmk 100 μM, 48 hours
Description: Glycosaminoglycan release assay. To estimate GAG depletion and release, the concentration of sulfated glycosaminoglycans was measured using […] (DMMB) as a monitor of spectrophotometric changes which occur during the formation of the sulfated GAG dye complex (Farndale, et al. (1986) Biochim. Biophys. Acts. 883, 173-177, Goldberg, et al. (1993) Agents Actions 39 Spec No, C163-C165). For GAG content measurement, samples were digested in papain and collagenase and the concentration of sulfated GAG measured using DMMB. To generate a standard curve, chondroitin-6-sulfate (Sigma, St. Louis, Mo.) was used at concentrations between 1 and 200 μg/ml. GAG released in media was normalized to the pooled mean GAG content of Control (uninjured) cartilage explants and expressed as a percentage of total GAG content.
Inhibition of apoptosis. To determine whether apoptosis could be prevented by caspase inhibition, 12 explants were loaded at 23 MPa (High Load) and cultured for 48 hours. […] Percent apoptosis and GAG release in media was measured as described above.
Release of sulfated glycosaminoglycans (GAG) was analyzed as a measure of the extent of damage sustained by the explant. […] GAG depletion was assessed by dimethylene blue binding assays of the culture supernatants and this correlated with the reduced of safranin O staining of the cartilage sections.

[3] = test system: femoral and tibial articular cartilage; test: Intraarticular injection of caspase inhibitor in rabbits with anterior cruciate ligament transection (ACLT); format: in vivo, New Zealand White rabbits; conditions: rabbit bilateral ACLT, 25 μg intra-articular three times per week for six weeks
Description: Intraarticular injection of caspase inhibitor in rabbits with ligament transection. A pilot study was performed to assess feasibility and efficacy of caspase inhibition in vivo. Eight New Zealand White rabbits were divided into anterior cruciate ligament transection (ACLT) and ACLT+ caspase inhibitor (CI) groups. Both groups underwent bilateral ACLT. The ACLT+CI group was treated with intra-articular injections of 25 μg of z-VAD.fmk three times per week for six weeks while the control group received saline injections. Rabbits were euthanised at six weeks and femoral and tibial articular cartilage evaluated by India ink staining and histologic Mankin grading after Safranin-O stain.
Histologically, more knees from the ACLT group had higher Mankin scores. 87% (⅞) ACLT knees had grades 5 or higher, while 50% ( 4/8) ACLT+CI knees were graded 5 or higher. The India ink stained femoral condyles were photographed and digital images were used to quantify the surface areas of the lesions.

| Compound | Mean (±SD) apoptosis rates, Loaded + Agent [1] | Mean (±SD) apoptosis rates, Loaded + Agent (human cartilage explants; loaded at 30% strain) | GAG release / GAG depletion [2] | GAG release / GAG depletion ([2]; listed as pan-caspase inhibitor) | chondrocyte apoptosis after mechanical injury (result in words) ([1]; bovine explants, z-VAD.fmk 100 μM, 23 MPa, 48 hours) | reduction in the apoptosis rate ([1]; high and intermediate load groups, bovine explants) | reduction of the size of the cartilage lesions (surface area, India ink stained femoral condyles) [3] | knees with histologic Mankin grades 5 or higher ([3]; 4/8 knees, ACLT saline group 87%) | cartilage lesions under India ink examination (area, grade) ([3]; ACLT group grade III to IVa, listed as caspase inhibitor) | Mean (±SD) apoptosis rates, Loaded + Agent (human cartilage explants; loaded at 23 MPa) | mean reduction in apoptotic rates (human cartilage explants; human explants cultured in z-VAD.fmk immediately after injury, 30% strain, 96 hours post-injury) |
| --- | --- | --- | --- | --- | --- | --- | --- | --- | --- | --- | --- |
| IGF-1: agent IGF-1 tested for pharmacologic modulation of apoptosis after cartilage injury in vitro | 42 (±10.9) % | 10 (±6.2) % | – | – | – | – | – | – | – | – | – |
| COC(=O)CC(NC(=O)C(C)NC(=O)C(NC(=O)OCc1ccccc1)C(C)C)C(=O)CF (stereo not drawn) [z-VAD.fmk, benzyloxycarbonyl-Val-Ala-Asp (OMe) fluoromethylketone] (Cbz-Val-Ala-Asp(OMe)-CH2F; configuration not given here) | 31 (±13.9) % | – | normalization of the GAG depletion | reduction in GAG release | reduced chondrocyte apoptosis | > 50% | ~80% | 50% | lesions that were smaller in area; also recorded: ranged from II (minimum fibrillation) | 34 (±10.2) % | 50% |
| C[C@@H]1C[C@H]2[C@@H]3CCC4=CC(=O)C=C[C@]4(C)[C@@]3(F)[C@@H](O)C[C@]2(C)[C@@]1(O)C(=O)CO [Dexameth.] | 47 (±11.2) % | – | – | – | – | – | – | – | – | – | – |
